Literature values as cited in patent publication US20240277615A1, “SELF-EMULSIFYING COMPOSITION, PRODUCTION METHODS AND USES THEREOF” (Universidade Da Beira Interior, priority 2021, published 2024).

Log P	plasma protein binding (plasma protein)	Structure (SMILES)
7		CC(C)CCC[C@@H](C)[C@H]1CC[C@H]2[C@@H]3CC=C4C[C@@H](O)CC[C@]4(C)[C@H]3CC[C@]12C [cholesterol]
	94-98%	CCC(C)(C)C(=O)O[C@H]1C[C@@H](C)C=C2C=C[C@H](C)[C@H](CC[C@@H]3C[C@@H](O)CC(=O)O3)[C@H]21 [simvastatin]
